Patent US20250011288A1 (BRISTOL-MYERS SQUIBB COMPANY, priority 2021, published 2025)

What follows are compounds tested against T1, human RXFP1 (Homo sapiens, UniProt Q9HBX9) (assay: human RXFP1 (hRXFP1) HEK293 cAMP assay (HTRF)). Conditions: HEK293 cells stably expressing human RXFP1, 30 min at room temperature.
T1 construct: expressed in transfected cells
T1 sequence (Q9HBX9 1-757): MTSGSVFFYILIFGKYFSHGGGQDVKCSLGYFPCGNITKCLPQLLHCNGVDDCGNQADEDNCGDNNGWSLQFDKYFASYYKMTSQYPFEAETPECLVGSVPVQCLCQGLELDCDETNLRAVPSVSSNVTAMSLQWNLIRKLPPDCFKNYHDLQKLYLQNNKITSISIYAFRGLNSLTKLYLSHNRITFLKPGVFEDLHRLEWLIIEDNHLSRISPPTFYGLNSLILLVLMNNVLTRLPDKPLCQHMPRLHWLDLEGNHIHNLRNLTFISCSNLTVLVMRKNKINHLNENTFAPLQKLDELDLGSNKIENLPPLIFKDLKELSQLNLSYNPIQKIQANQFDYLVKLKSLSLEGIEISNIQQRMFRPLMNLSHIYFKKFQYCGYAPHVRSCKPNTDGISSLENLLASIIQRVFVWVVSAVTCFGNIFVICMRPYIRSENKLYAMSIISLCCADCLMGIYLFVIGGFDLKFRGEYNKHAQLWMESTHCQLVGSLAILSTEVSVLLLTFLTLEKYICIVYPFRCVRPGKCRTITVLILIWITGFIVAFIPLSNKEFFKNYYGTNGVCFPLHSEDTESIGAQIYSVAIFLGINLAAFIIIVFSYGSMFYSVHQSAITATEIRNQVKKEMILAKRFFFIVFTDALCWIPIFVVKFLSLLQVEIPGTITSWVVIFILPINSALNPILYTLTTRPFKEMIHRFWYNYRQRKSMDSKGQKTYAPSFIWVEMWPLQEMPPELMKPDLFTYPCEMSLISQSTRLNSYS
Format: cell-based
In short: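 Intracellular cAMP was quantified by HTRF after a 30 min room-temperature exposure of hRXFP1-HEK293 cells (1500/well) to compound at 0.010 nM–50 µM final, 2% DMSO. Buffer was HBSS with 20 mM HEPES, 0.05% BSA and 0.5 mM IBMX; values came from a 4-parameter logistic fit.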

Row | SMILES | EC50 [nM]
1 | COc1ncc(Br)nc1C(=O)N[C@@H]1C2CCC(C2=C(C)C)[C@@H]1C(=O)Nc1ccc(F)c(C(F)(F)F)c1 (stereo partly drawn) [Example 5, 6-bromo-N-[(2R,3S)-3-{[4-fluoro-3-(trifluoromethyl)phenyl]carbamoyl}-7-(propan-2-ylidenc)bicyclo [2.2.1]heptan-2-yl]-3-methoxypyrazine-2-carboxamide] | 1100
2 | O=C(O)c1ccc(F)c(-c2cnc(OCCO)c(C(=O)N[C@H]3[C@@H](C(=O)Nc4ccc(F)c(C(F)(F)F)c4)[C@H]4CC[C@@H]3/C4=C\C(F)(F)F)c2)c1 [Example 40, 4-fluoro-3-(5-(((1R,2R,3S,4R,Z)-3-((4-fluoro-3-(trifluoromethyl)phenyl)carbamoyl)-7-(2,2,2-trifluoroethylidene)bicyclo[2.2.1]heptan-2-yl)carbamoyl)-6-(2-hydroxyethoxy)pyridin-3-yl)benzoic acid] | 39
3 | COc1cnc(-c2cccc(C(=O)O)c2)cc1C(=O)N[C@@H]1C2CCC(/C2=C/C(F)(F)F)[C@@H]1C(=O)Nc1ccc(F)c(C(F)(F)F)c1 (stereo partly drawn) [Example 31, 3-(4-{[(2R,3S,7Z)-3-{[4-fluoro-3-(trifluoromethyl)phenyl]carbamoyl}-7-(2,2,2-trifluoroethylidene)bicyclo[2.2.1]heptan-2-yl]carbamoyl}-5-methoxypyridin-2-yl)benzoic acid] | 162
4 | COc1cnccc1C(=O)N[C@@H]1C2CCC(C2=C(C)C)[C@@H]1C(=O)Nc1ccc(F)c(C(F)(F)F)c1 (stereo partly drawn) [Example 6, N-[(2R,3S)-3-{[4-fluoro-3-(trifluoromethyl)phenyl]carbamoyl}-7-(propan-2-ylidene)bicyclo [2.2.1]heptan-2-yl]-3-methoxypyridine-4-carboxamide] | 1100
5 | O=C(N[C@@H]1C2CCC(/C2=C/C(F)(F)F)[C@@H]1C(=O)Nc1ccc(F)c(C(F)(F)F)c1)c1cc(=O)c2ccccc2o1 (stereo partly drawn) [Example 16, N-[(2R,3S,7Z)-3-{[4-fluoro-3-(trifluoromethyl)phenyl]carbamoyl}-7-(2,2,2-trifluoroethylidene)bicyclo[2. 2.1]heptan-2-yl]-4-oxo-4H-chromene-2-carboxamide] | 3800
6 | COc1ccc(-c2ccc(C(=O)O)cc2)nc1C(=O)N[C@@H]1C2CCC(C2=C(C)C)[C@@H]1C(=O)Nc1ccc(F)c(C(F)(F)F)c1 (stereo partly drawn) [Example 22, 4-(6-{[(2R,3S)-3-{[4-fluoro-3-(trifluoromethyl)phenyl]carbamoyl}-7-(propan-2-ylidene)bicyclo [2.2.1]heptan-2-yl]carbamoyl}-5-methoxypyridin-2-yl)benzoic acid] | 1700
7 | COc1ncc(-c2cc([C@H](O)C(F)(F)F)ccc2F)nc1C(=O)N[C@@H]1C2CCC(/C2=C/C(F)(F)F)[C@@H]1C(=O)Nc1ccc(F)c(C(F)(F)F)c1 (stereo partly drawn) [Example 34, N-[(2R,3S,7Z)-3-{[4-fluoro-3-(trifluoromethyl)phenyl]carbamoyl}-7-(2,2,2-trifluoroethylidene)bicyclo[2.2.1]heptan-2-yl]-6-{2-fluoro-5-[(1S)-2,2,2-trifluoro-1-hydroxyethyl]phenyl}-3-methoxypyrazine-2-carboxamide] | 3000
8 | COc1ncc(-c2cc(C(=O)O)ccc2F)nc1C(=O)N[C@@H]1C2CCC(C2=C(C)C)[C@@H]1C(=O)Nc1ccc(F)c(C(F)(F)F)c1 (stereo partly drawn) [Example 24, 4-Fluoro-3-(6-{[(2R,3S)-3-{[4-fluoro-3-(trifluoromethyl)phenyl]carbamoyl}-7-(propan-2-ylidene)bicyclo [2.2.1]heptan-2-yl]carbamoyl}-5-methoxypyrazin-2-yl)benzoic acid] | 1000

The remaining lines, values ahead:

Row | EC50 [nM] | SMILES
9 | 4.8 | COc1ncc(C2=NOC3CC(O)CC23)cc1C(=O)N[C@H]1[C@@H](C(=O)Nc2ccc(F)c(C(F)(F)F)c2)[C@H]2CC[C@@H]1/C2=C\C1CC1 (stereo partly drawn) [Example 138, N-((1R,2R,3S,4R,Z)-7-(cyclopropyl-methylene)-3-((4-fluoro-3-(trifluoromethyl)phenyl)carbamoyl)bicyclo[2.2.1]heptan-2-yl)-5-(5-hydroxy-3a,5,6,6a-tetrahydro-4H-cyclopenta[d]isoxazol-3-yl)-2-methoxynicotinamide]
10 | 2.9 | COc1ncc(C2=NOC3CC(CO)CC23)cc1C(=O)N[C@H]1[C@@H](C(=O)Nc2ccc(F)c(C(F)(F)F)c2)[C@H]2CC[C@@H]1/C2=C\CCC(F)(F)F (stereo partly drawn) [Example 139, N-((1R,2R,3S,4R,Z)-3-((4-fluoro-3-(trifluoromethyl)phenyl)carbamoyl)-7-(4,4,4-trifluorobutylidene)bicyclo[2.2.1]heptan-2-yl)-5-(5-(hydroxymethyl)-3a,5,6,6a-tetrahydro-4H-cyclopenta[d]isoxazol-3-yl)-2-methoxynicotinamide]
11 | 8.4 | COc1ncc(C2=NOC3CC(C(OC(=O)Nc4ccccc4)C4CC4)CC23)cc1C(=O)N[C@@H]1C2CCC(/C2=C/C2CC(F)(F)C2)[C@@H]1C(=O)Nc1ccc(F)c(C(F)(F)F)c1 (stereo partly drawn) [Example 160, cyclopropyl[3-(5-{[(2R,3S,7Z)-7-1(3,3-difluorocyclobutyl)methylidene]-3-{[4-fluoro-3-(trifluoromethyl)phenyl]carbamoyl}bicyclo[2.2.1]heptan-2-yl]carbamoyl}-6-methoxypyridin-3-yl)-3aH,4H,5H,6H, 6aH-cyclopenta[d][1,2] oxazol-5-yl]methyl N-phenylcarbamate]
12 | 210 | COc1ncc(C2=NOC3COCC23)cc1C(=O)N[C@H]1[C@@H](C(=O)Nc2ccc(F)c(C(F)(F)F)c2)[C@H]2CC[C@@H]1/C2=C\C1CC1 (single isomer, unassigned) [Example 60]
13 | 1600 | COc1cc2c(cc1C(=O)N[C@@H]1C3CCC(/C3=C/C3CC3)[C@@H]1C(=O)Nc1ccc(F)c(C(F)(F)F)c1)CCN(CC(C)(C)O)C2 (some centres unmarked) [Example 95]
14 | 2.3 | COc1ncc(C2=NOC3CC(CO)CC23)cc1C(=O)N[C@@H]1C2CCC(/C2=C/C2CC2)[C@@H]1C(=O)Nc1ccc(F)c(C(F)(F)F)c1 (single isomer, unassigned) [Example 70]
15 | 3.2 | COc1ncc(C2=NOC3CC(CO)CC23)cc1C(=O)N[C@H]1[C@@H](C(=O)N[C@H](C)C2(C)CC(F)(F)C2)[C@H]2CC[C@@H]1/C2=C\C1CC1 (stereo partly drawn) [Example 140, N-((1R,2R,3S,4R,Z)-7-(cyclopropyl-methylene)-3-(((R)-1-(3,3-difluoro-1-methylcyclobutyl)ethyl)carbamoyl)bicyclo[2.2.1]heptan-2-yl)-5-(5-(hydroxymethyl)-3a,5,6,6a-tetrahydro-4H-cyclopenta[d]isoxazol-3-yl)-2-methoxynicotinamide]
16 | 230 | COc1cc2c(cc1C(=O)N[C@H]1[C@@H](C(=O)Nc3ccc(F)c(C(F)(F)F)c3)[C@H]3CC[C@@H]1/C3=C\C1CC1)CN(S(C)(=O)=O)CC2 [Example 89, N-[(1R,2R,3S,4R)-7-(cyclopropyl-methylidene)-3-{[4-fluoro-3-(trifluoromethyl)phenyl]carbamoyl}bicyclo[2.2.1]heptan-2-yl]-2-methanesulfonyl-6-methoxy-1,2,3,4-tetrahydro-isoquinoline-7-carboxamide]
17 | 2400 | COc1cc2c(cc1C(=O)N[C@H]1[C@@H](C(=O)Nc3ccc(F)c(C(F)(F)F)c3)[C@H]3CC[C@@H]1/C3=C\C1CC1)CNCC2 [Example 83, N-((1R,2R,3S,4R,Z)-7-(cyclopropylmethylene)-3-((4-fluoro-3-(trifluoromethyl)phenyl)carbamoyl)bicyclo[2.2.1]heptan-2-yl)-6-methoxy-1,2,3,4-tetrahydroisoquinoline-7-carboxamide]
